Numbers after ± are expanded uncertainties.
Assay: xn = mol fraction of the nth substance listed
Conditions: Liquid, Vibrating tube method

SMILES: CCCCCCCCCCC [undecane] + CCCCCCC
- mass density (313.15 K, 23000 kPa, x2 = 0.05): 740.6 ± 0.4 kg/m3
- mass density (313.15 K, 23000 kPa, x2 = 0.7482): 706.2 ± 0.4 kg/m3
- mass density (313.15 K, 24000 kPa, x2 = 0.05): 741.3 ± 0.4 kg/m3
- mass density (313.15 K, 24000 kPa, x2 = 0.7482): 707 ± 0.4 kg/m3
- mass density (313.15 K, 25000 kPa, x2 = 0.05): 741.9 ± 0.4 kg/m3
- mass density (313.15 K, 25000 kPa, x2 = 0.7482): 707.7 ± 0.4 kg/m3
- mass density (313.16 K, 1000 kPa, x2 = 0.2346): 716.5 ± 0.3 kg/m3
- mass density (313.16 K, 2001 kPa, x2 = 0.2346): 717.4 ± 0.3 kg/m3
- mass density (313.16 K, 3000 kPa, x2 = 0.2346): 718.3 ± 0.3 kg/m3
- mass density (313.16 K, 4001 kPa, x2 = 0.2346): 719.2 ± 0.3 kg/m3
- mass density (313.16 K, 5000 kPa, x2 = 0.2346): 720 ± 0.3 kg/m3
- mass density (313.16 K, 6000 kPa, x2 = 0.2346): 720.8 ± 0.3 kg/m3
- mass density (313.16 K, 7000 kPa, x2 = 0.2346): 721.7 ± 0.3 kg/m3
- mass density (313.16 K, 8000 kPa, x2 = 0.2346): 722.5 ± 0.3 kg/m3
- mass density (313.16 K, 9000 kPa, x2 = 0.2346): 723.3 ± 0.3 kg/m3
- mass density (313.16 K, 10000 kPa, x2 = 0.2346): 724.1 ± 0.3 kg/m3
- mass density (313.16 K, 11001 kPa, x2 = 0.2346): 724.8 ± 0.3 kg/m3
- mass density (313.16 K, 12000 kPa, x2 = 0.2346): 725.6 ± 0.3 kg/m3
- mass density (313.16 K, 13000 kPa, x2 = 0.2346): 726.4 ± 0.3 kg/m3
- mass density (313.16 K, 14000 kPa, x2 = 0.2346): 727.1 ± 0.3 kg/m3
- mass density (313.16 K, 15000 kPa, x2 = 0.2346): 727.8 ± 0.3 kg/m3
- mass density (313.16 K, 16000 kPa, x2 = 0.2346): 728.6 ± 0.4 kg/m3
- mass density (313.16 K, 17000 kPa, x2 = 0.2346): 729.3 ± 0.4 kg/m3
- mass density (313.16 K, 18000 kPa, x2 = 0.2346): 730 ± 0.4 kg/m3
- mass density (313.16 K, 19000 kPa, x2 = 0.2346): 730.7 ± 0.4 kg/m3
- mass density (313.16 K, 20000 kPa, x2 = 0.2346): 731.4 ± 0.4 kg/m3
- mass density (313.16 K, 21000 kPa, x2 = 0.2346): 732.1 ± 0.4 kg/m3
- mass density (313.16 K, 22000 kPa, x2 = 0.2346): 732.7 ± 0.4 kg/m3
- mass density (313.16 K, 23000 kPa, x2 = 0.2346): 733.4 ± 0.4 kg/m3
- mass density (313.16 K, 24000 kPa, x2 = 0.2346): 734 ± 0.4 kg/m3
- mass density (313.16 K, 25000 kPa, x2 = 0.2346): 734.7 ± 0.4 kg/m3
- mass density (323.09 K, 1001 kPa, x2 = 0.9511): 663.1 ± 0.3 kg/m3
- mass density (323.09 K, 2000 kPa, x2 = 0.9511): 664.3 ± 0.3 kg/m3
- mass density (323.09 K, 3000 kPa, x2 = 0.9511): 665.4 ± 0.3 kg/m3
- mass density (323.09 K, 4000 kPa, x2 = 0.9511): 666.6 ± 0.3 kg/m3
- mass density (323.09 K, 5000 kPa, x2 = 0.9511): 667.7 ± 0.3 kg/m3
- mass density (323.09 K, 6000 kPa, x2 = 0.9511): 668.8 ± 0.3 kg/m3
- mass density (323.09 K, 7000 kPa, x2 = 0.9511): 669.9 ± 0.3 kg/m3
- mass density (323.09 K, 8000 kPa, x2 = 0.9511): 670.9 ± 0.3 kg/m3
- mass density (323.09 K, 9000 kPa, x2 = 0.9511): 672 ± 0.3 kg/m3
- mass density (323.09 K, 10000 kPa, x2 = 0.9511): 673 ± 0.3 kg/m3
- mass density (323.09 K, 11000 kPa, x2 = 0.9511): 674 ± 0.4 kg/m3
- mass density (323.09 K, 12000 kPa, x2 = 0.9511): 675 ± 0.4 kg/m3
- mass density (323.09 K, 13000 kPa, x2 = 0.9511): 675.9 ± 0.4 kg/m3
- mass density (323.09 K, 14001 kPa, x2 = 0.9511): 676.9 ± 0.4 kg/m3
- mass density (323.09 K, 15001 kPa, x2 = 0.9511): 677.8 ± 0.4 kg/m3
- mass density (323.09 K, 16000 kPa, x2 = 0.9511): 678.7 ± 0.4 kg/m3
- mass density (323.09 K, 17001 kPa, x2 = 0.9511): 679.6 ± 0.4 kg/m3
- mass density (323.09 K, 18001 kPa, x2 = 0.9511): 680.5 ± 0.4 kg/m3
- mass density (323.09 K, 19000 kPa, x2 = 0.9511): 681.4 ± 0.4 kg/m3
- mass density (323.09 K, 20000 kPa, x2 = 0.9511): 682.3 ± 0.4 kg/m3
- mass density (323.09 K, 21001 kPa, x2 = 0.9511): 683.1 ± 0.4 kg/m3
- mass density (323.09 K, 22000 kPa, x2 = 0.9511): 683.9 ± 0.4 kg/m3
- mass density (323.09 K, 23001 kPa, x2 = 0.9511): 684.8 ± 0.5 kg/m3
- mass density (323.09 K, 24000 kPa, x2 = 0.9511): 685.6 ± 0.5 kg/m3
- mass density (323.09 K, 25000 kPa, x2 = 0.9511): 686.3 ± 0.5 kg/m3
- mass density (323.11 K, 2001 kPa, x2 = 0.5063): 695.8 ± 0.3 kg/m3
- mass density (323.11 K, 3000 kPa, x2 = 0.5063): 696.8 ± 0.3 kg/m3
- mass density (323.11 K, 4000 kPa, x2 = 0.5063): 697.8 ± 0.3 kg/m3
- mass density (323.11 K, 5000 kPa, x2 = 0.5063): 698.8 ± 0.3 kg/m3
- mass density (323.11 K, 6000 kPa, x2 = 0.5063): 699.7 ± 0.3 kg/m3
- mass density (323.11 K, 7000 kPa, x2 = 0.5063): 700.7 ± 0.3 kg/m3
- mass density (323.11 K, 8001 kPa, x2 = 0.5063): 701.6 ± 0.3 kg/m3
- mass density (323.11 K, 9000 kPa, x2 = 0.5063): 702.5 ± 0.3 kg/m3
- mass density (323.11 K, 10000 kPa, x2 = 0.5063): 703.4 ± 0.3 kg/m3
- mass density (323.11 K, 11000 kPa, x2 = 0.5063): 704.3 ± 0.3 kg/m3
- mass density (323.11 K, 12000 kPa, x2 = 0.5063): 705.1 ± 0.3 kg/m3
- mass density (323.11 K, 13000 kPa, x2 = 0.5063): 706 ± 0.3 kg/m3
- mass density (323.11 K, 14000 kPa, x2 = 0.5063): 706.8 ± 0.4 kg/m3
- mass density (323.11 K, 15000 kPa, x2 = 0.5063): 707.6 ± 0.4 kg/m3
- mass density (323.11 K, 16000 kPa, x2 = 0.5063): 708.5 ± 0.4 kg/m3
- mass density (323.11 K, 17001 kPa, x2 = 0.5063): 709.3 ± 0.4 kg/m3
- mass density (323.11 K, 18000 kPa, x2 = 0.5063): 710.1 ± 0.4 kg/m3
- mass density (323.11 K, 19000 kPa, x2 = 0.5063): 710.8 ± 0.4 kg/m3
- mass density (323.11 K, 20000 kPa, x2 = 0.5063): 711.6 ± 0.4 kg/m3
- mass density (323.11 K, 21001 kPa, x2 = 0.5063): 712.4 ± 0.4 kg/m3
- mass density (323.11 K, 22050 kPa, x2 = 0.5063): 713.1 ± 0.4 kg/m3
- mass density (323.11 K, 23000 kPa, x2 = 0.5063): 713.9 ± 0.4 kg/m3
- mass density (323.11 K, 24000 kPa, x2 = 0.5063): 714.6 ± 0.4 kg/m3
- mass density (323.11 K, 25000 kPa, x2 = 0.5063): 715.3 ± 0.4 kg/m3
- mass density (323.12 K, 1000 kPa, x2 = 0.7482): 679.1 ± 0.3 kg/m3
- mass density (323.12 K, 1001 kPa, x2 = 0.05): 716.7 ± 0.3 kg/m3
- mass density (323.12 K, 2000 kPa, x2 = 0.7482): 680.2 ± 0.3 kg/m3
- mass density (323.12 K, 2001 kPa, x2 = 0.05): 717.6 ± 0.3 kg/m3
- mass density (323.12 K, 3000 kPa, x2 = 0.05): 718.5 ± 0.3 kg/m3
- mass density (323.12 K, 3000 kPa, x2 = 0.7482): 681.3 ± 0.3 kg/m3
- mass density (323.12 K, 4000 kPa, x2 = 0.05): 719.4 ± 0.3 kg/m3
- mass density (323.12 K, 4000 kPa, x2 = 0.7482): 682.3 ± 0.3 kg/m3
- mass density (323.12 K, 5000 kPa, x2 = 0.05): 720.3 ± 0.3 kg/m3
- mass density (323.12 K, 5000 kPa, x2 = 0.7482): 683.4 ± 0.3 kg/m3
- mass density (323.12 K, 6000 kPa, x2 = 0.05): 721.1 ± 0.3 kg/m3
- mass density (323.12 K, 6000 kPa, x2 = 0.7482): 684.4 ± 0.3 kg/m3
- mass density (323.12 K, 7000 kPa, x2 = 0.05): 722 ± 0.3 kg/m3
